Tested on: disseminated L1210 murine leukemia
Experiment: Antileukemic activity against disseminated L1210 murine leukemia
Settings: PNU 166196 0.52 mg/kg; for ILS % (increase in life span) / Tox (number of toxic deaths/number of mice): L1210 cells 10^5/mouse CD2F1 IV day 0, treatment iv day +1, doxorubicin 10 mg/kg (given 2 h after PNU 166196), alone or combined at the same doses
Excerpt: For these experiments, PNU 166196 and doxorubicin were solubilized in water for injection.

Row | Structure (SMILES) | ILS % (increase in life span) [%] | Tox (number of toxic deaths/number of mice) | toxicity (in words) (single agents, iv day +1, doxorubicin 10 mg/kg)
1 | COc1cccc2c1C(=O)c1c(O)c3c(c(O)c1C2=O)C[C@@](O)(C(=O)CO)C[C@@H]3O[C@H]1C[C@H](N)[C@H](O)[C@H](C)O1 [Doxorubicin, doxorubicin, reference compound] | 58 | 0/10 | 
2 | C=C(Br)C(=O)Nc1cc(C(=O)Nc2cc(C(=O)Nc3cc(C(=O)Nc4cc(C(=O)NCCNC(=N)N)n(C)c4)n(C)c3)n(C)c2)n(C)c1.Cl [PNU 166196, N-(5-{[(5-{[(5-{[(2-{[amino(imino)methyl]amino}ethyl)amino]carbonyl}-1-methyl-1H-pyrrol-3-yl)amino]carbonyl}-1-methyl-1H-pyrrol-3-yl)amino]carbonyl}-1-methyl-1H-pyrrol-3-yl)-4-[(2-bromoacryloyl)amino]-1-methyl-1H-pyrrole-2-carboxamide hydrochloride] | 33 | 0/10 | without toxicity
